Consider one compound from EP0519976B1, “NEUTROPHIL STIMULATING PEPTIDES” (PEPTIDE TECHNOLOGY LTD, priority 1990, dated 1991).

In this assay the test system is Purified human neutrophils. Nature of the assay: Lucigenin dependent chemiluminescence assay (neutrophil respiratory burst / priming for F-met-leu-phe response). It counts as cell-based. The settings on record: fMLP alone. How it is done: Purified human neutrophils were pretreated with peptide for 20 minutes before the addition of f-met-leu-phe. The lucigenin dependent chemiluminescence response, which reflects superoxide production, was then measured. The results obtained are set out in Table 2 and are expressed as mV of lucigenin dependent chemiluminescence and represent the maximal cell activity attained.
This experiment was repeated with peptides 304, 308 and 309.
The experiment was also conducted using peptides 393, 394, 395 and 396. […]
Results are expressed as mV of lucigenin dependent chemiluminescence and respresent peak of response i.e. the maximal cell activity attained.

Take `CSCC[C@H](NC=O)C(=O)N[C@@H](CC(C)C)C(=O)N[C@@H](Cc1ccccc1)C(=O)O` [fMLP, N-formyl-L-methionyl-L-leucyl-L-phenylalanine]: the Chemiluminescence is, setting by setting: (Exp. 1) 1.53 mV; (Exp. 2) 3.53 mV; (Exp. 3) 1.96 mV.
